Source: US9210914B2, “Method for training honeybees to respond to olfactory stimuli and enhancement of memory retention therein” (LOS ALAMOS NATIONAL SECURITY, LLC, priority 2011, dated 2015)

Columns and labels:
Assay type in all cases: in vivo, Apis mellifera
honeybees [1] = assay: Long-term memory retention of conditioned PER response in honeybees fed supplements
Experimental: (§1) The bees were brought back to the lab and split into three groups. One control group was fed 40% sugar water in a trough or on parafilm in cage. […] The second and third experimental groups were given 40% sugar water spiked with the cocktail. All honeybees were handled the same way. The mixture was to the honeybees from the beginning of capture, through training and until the completion of the experiment.
Long-term memory enhancements using PKA and caffeine were also tested. […] Approximately 3.9 units PKA/bee (1 μl) and 15.6 units PKA/bee (4 μl) were administrated.

honeybees [2] = assay: Trainability of honeybees in PER olfactory conditioning; settings: JHIII alone, 250 mg/ml in acetone, topical administration to thorax, 3 ul; foragers (TNT) or young (linalool)
honeybees [3] = assay: Death rate of honeybees after supplement administration; settings: Four μl PKA (15.6 units PKA/bee)
Experimental: as §1
Long-term memory enhancements using PKA and caffeine were also tested. Caffeine and PKA, when administered separately, increase long-term memory out to a minimum of 3 days post training. Approximately 3.9 units PKA/bee (1 μl) and 15.6 units PKA/bee (4 μl) were administrated.

[4] = 1 μl PKA (approximately 3.9 units PKA/bee)

Compound: Nc1ncnc2c1ncn2[C@@H]1O[C@@H]2COP(=O)(O)O[C@H]2[C@H]1O [cAMP, cyclic adenosine monophosphate]
- long-term memory in honeybees trained to C-4 (honeybees [1]; 1mM cAMP ingested in 40% sucrose solution, alone): did not appear to significantly increase long-term memory

Compound: COC(=O)/C=C(\C)CC/C=C(\C)CC[C@H]1OC1(C)C [JHIII, Juvenile Hormone III]
- trainability (honeybees [2]): does not appear to substantially increase trainability

Compound: Cn1c(=O)c2c(ncn2C)n(C)c1=O [Caffeine, caffeine]
- long term memory recall (honeybees [1]; caffeine at 2.5 mM, compared to concentrations ranging 0-5 mM): best improvement in long term memory recall

Compound: protein kinase A [PKA]
- long-term memory at the 24 hour mark (honeybees [1]; [4]): increase in long-term memory
- long-term memory at the 48 hour mark (honeybees [1]; [4]): increase in long-term memory
- death rate at Day 3 post training and exposure (honeybees [3]): larger death rate
